The conditions of series [1]: cumulative dose of doxorubicin >200 mg/m^2, CHOP regimen, aggressive Non-Hodgkin Lymphoma patients; cited from earlier work.
A further series has as its system PTCL. The settings on record: anthracycline-based regimens; cited from earlier work.
The subject of series [2] is peripheral T-cell lymphoma (PTCL). In words: Randomized Phase 2 dose finding study of Pralatrexate-COP versus CHOP. On the set-up: species or system human. The settings on record: in vivo, iv.
Description: This experiment was performed to identify the suitable dose of Pralatrexate that would be optimal in polychemotherapy for the next study (phase-III) based on safety and ORR (objective response rate) at 3 months. Initially, a lower dose of 20 mg/m^2 was compared to 30 mg/m^2 combined with COP. Therefore, these two dose levels were assigned randomly to 20 patients in addition to COP (Pralatrexate-COP). […] Dose effect on polyglutamate-Pralatrexate, DNA hypomethylation or H3-acetylation was evaluated in this part of the study as a surrogate for PD (pharmacodynamics) drug exposure. […] Further objective of dose finding study was also to evaluate the safety profiles for patients with newly diagnosed PTCL treated with Pralatrexate-COP compared to CHOP alone.
In the dose finding study, each investigational arm was having two dose levels which was compared with CHOP as reference. Treatment was randomized in three arms, Group 1a (Pralatrexate-COP) Pralatrexate 20 mg/m^2, Group 1b Pralatrexate 30 mg/m^2, all added to standard CHOP or COP respectively, and Group 2 for CHOP alone. […]

Each structure is given as a SMILES string.

On to `COc1cccc2c1C(=O)c1c(O)c3c(c(O)c1C2=O)C[C@@](O)(C(=O)CO)C[C@@H]3O[C@H]1C[C@H](N)[C@H](O)[C@H](C)O1` [Doxorubicin], for which the “patients with cardiac events” value in series [1] is listed as 27%. Further, the “survival impact of inclusion in a polychemotherapy regimen” value in the series with PTCL is recorded as “not associated with a survival improvement”.
Turning to `C#CCC(Cc1cnc2nc(N)nc(N)c2n1)c1ccc(C(=O)N[C@@H](CCC(=O)O)C(=O)O)cc1` (mixture of isomers) [Pralatrexate], the “effect in combination with COP” value in series [2] is “synergistic effect”.

The values are drawn from patent US20260130919A1 (priority 2023, published 2026).
